Reference: US20030050242A1, “Protein polymerization inhibitors and methods of use” (priority 1999, published 2003)
Like-named read-outs stand apart in the source and are kept apart here. Marks after values point to notes of the source that are not given here. Ends that are not written are not given here. Peptide text beside a SMILES is read from it.

Legend:
[1] = system: HIV-2; test: viral infection assay in H9 cells, reverse transcriptase (RT) activity in supernatant; assay type: cell-based; conditions: for effect on HIV-2 infection, in words: summary of the experiments in H9 cells; for Day 7 RT HIV-2 / Day 10 RT HIV-2: H9 cells, 100 μM
Method: (§1) Next, the ability of peptide agents to inhibit viral infection was evaluated. Accordingly, the peptide agents listed in Table 1 were used in several viral (e.g., HIV-1, HIV-2, and SIV) infection assays. […] Once inhibitory tripeptides were identified, more specific assays were conducted to determine the effect of varying concentrations of the selected tripeptides and combination treatments (e.g., the use of more than one modified tripeptide in combination).
(§2) To monitor the replication of virus, reverse transcriptase (RT) activity in the supernatants was assayed using a commercially available Lenti-RT activity kit. (Cavidi Tech, Uppsala, Sweden). The amount of RT was determined with the aid of a regression line of standards. […] Syncytium formation was also monitored by microscopic examination.
(§3) (Cavidi Tech). The amount of RT was determined with the aid of a regression line of standards.

[2] = system: SIV; test: as above; assay type: cell-based; conditions: for effect on SIV infection, in words: summary of the experiments in H9 cells; for Day 7 RT SIV / Day 10 RT SIV: H9 cells, 100 μM
Method: as §1, §2, §3

[3] = system: HIV-1; conditions: summary of Experiments 1-6
Method: as §1

[4] = target: viral capsid protein (p24) of HIV-2 (HIV-2)
[5] = target: viral capsid protein (p24) of SIV (SIV)
[6] = system: HIV-1; conditions: H9 cells, 100 μM
Method: Next, the ability of peptide agents to inhibit viral infection was evaluated. Accordingly, the peptide agents listed in Table 1 were used in several viral (e.g., HIV-1, HIV-2, and SIV) infection assays. The efficiency of HIV-1, HIV-2, and SIV infection was monitored by reverse transcriptase activity, the concentration of p24 protein in the cell supernatent, and by microscopic evaluation of HIV-1 syncytia formation. In initial experiments, several modified tripeptides were screened for the ability to inhibit HIV-1, HIV-2, and SIV infection in H9 cells.
In Experiments 1 and 2, approximately 200,000H9 cells were infected with HIV-1, HIV-2 or SIV at 25 TCID50 to test the inhibitory effect of the following synthesized tripeptides LKA-NH2, ILK-NH2, GPQ-NH2, GHK-NH2, GKG-NH2, ACQ-NH2, CQG-NH2, ARV-NH2, KAR-NH2, HKA-NH2, GAT-NH2, KAL-NH2, and GPG-NH2. Accordingly, the H9 cells were resuspended with or without the different peptides (approximately 100 μM) in 1 ml of RPMI 1640 medium supplemented with 10% (v/v) heat-inactivated fetal bovine serum (FBS), penicillin (100 u/ml), and streptomycin (100 u/ml), all available through GIBCO, and Polybrene (2 μg/ml), available through Sigma. Thereafter, viruses were added at 25 TCID50 in a volume of 20-30%1. Cells were incubated with virus at 37° C. for 1 hr then pelleted at 170× g for 7 minutes. The cells were then washed three times in RPMI medium without peptides at room temperature and pelleted at 170× g for 7 minutes, as above. After the final wash, the cells were resuspended in RPMI culture medium in a 24-well plate (Costar corporation) and kept at 37° C. in 5% CO2 with humidity.
Culture supernatants were collected and analyzed when the medium was changed at 4, 7, 10, and 14 days post infection. To monitor the replication of virus, reverse transcriptase (RT) activity in the supernatants was assayed using a commercially available Lenti-RT activity kit. […] The amount of RT was determined with the aid of a regression line of standards. The results are presented as absorbance values (OD) and higher absorbance indicates a higher protein concentration and greater viral infection. Syncytium formation was also monitored by microscopic examination.
In Experiment 3, (Table 5), approximately 200,000H9 cells were infected with HIV-1, HIV-2 or SIV at 25 TCID50 to test the inhibitory effect of different concentrations of peptides GPG-NH2, GKG-NH2 and CQG-NH2 and combinations of these peptides (the indicated concentration corresponds to the concentration of each tripeptide). As above, H9 cells were resuspended with or without the different peptides at varying concentrations in 1 ml of RPMI 1640 medium supplemented with 10% (v/v) heat-inactivated fetal bovine serum (FBS), penicillin (100 u/ml), and streptomycin (lOOu/ml), and Polybrene (2 μg/ml). Thereafter, viruses were added at 25 TCID50 in a volume of 20-30 μ. Cells were incubated with the indicated virus at 37° C. for 1 hr then pelleted at 170× g for 7 minutes. The cells were then washed three times in RPMI medium without peptides at room temperature and pelleted at 170× g for 7 minutes, as above. After the final wash, the cells were resuspended in RPMI culture medium in a 24-well plate (Costar corporation) and kept at 37° C. in 5% CO2 with humidity.
Culture supernatants were collected when the medium was changed at 4, 7, and 11 days post infection. As above, the replication of each virus was monitored by detecting reverse transcriptase (RT) activity in the supernatants using the Lenti-RT activity kit.

[7] = system: HIV-1; conditions: H9 cells, 100 μM, pos/neg
Method: as §1, §2

[8] = Experiment 1, higher OD = greater infection

Row | Compound | effect on HIV-2 infection, in words [1] | effect on SIV infection, in words [2] | effect on HIV-1 infection, in words [3] | reverse transcriptase (RT) activity in the supernatants, Day 10 RT (OD) [4] [OD] | reverse transcriptase (RT) activity in the supernatants, Day 10 RT (OD) [5] [OD] | Day 10 RT HIV-1 ([6]; Experiment 1) [OD] | Day 7 RT HIV-1 [6, 8] | Day 7 RT HIV-1 ([6]; Experiment 2) | Day 10 RT HIV-1 ([6]; Experiment 2) [OD] | Day 7 RT HIV-2 ([1]; Experiment 1) [OD] | Day 10 RT HIV-2 ([1]; Experiment 1) [OD] | Day 7 RT HIV-2 ([1]; Experiment 2) [OD] | Day 10 RT HIV-2 ([1]; Experiment 2) [OD] | Day 7 RT SIV ([2]; Experiment 1) [OD] | Day 10 RT SIV ([2]; Experiment 1) [OD] | Day 7 RT SIV ([2]; Experiment 2) [OD] | Day 10 RT SIV ([2]; Experiment 2) [OD] | HIV-1 Syncytia ([7]; Experiment 1) | HIV-1 Syncytia ([7]; Experiment 2)
1 | NCCCC[C@H](NC(=O)CN)C(=O)NCC(N)=O [GKG-NH2, glycyl-lysyl-glycine amide] (H-Gly-Lys-Gly-NH2) | inhibit or prevent HIV-2 and SIV infection | inhibit or prevent HIV-2 and SIV infection | inhibited and/or prevented HIV-1 infection | – | – | – | – | – | – | – | – | – | – | – | – | – | – | – | –
2 | ACQ-NH2 (peptide) | – | – | – | 2.75 | 2.75 | – | – | – | – | – | – | – | – | – | – | – | – | – | –
3 | ARV-NH2 (peptide) | – | – | – | 3 | 1.17 | – | – | – | – | – | – | – | – | – | – | – | – | – | –
4 | Ala-Arg-Val (Ala-Arg-Val-NH2) [ARV-NH2] | – | – | failed to prevent infection | – | – | 1.528 | 0.156 OD | 0.618 OD | 2.829 | 3.380 | 3.003 | 2.237 | 2.628 | 0.210 | 1.172 | 0.212 | 3.004 | pos | pos
5 | Ala-Cys-Gln (Ala-Cys-Gln-NH2) [ACQ-NH2] | – | – | did not prevent HIV infection | – | – | 0.904 | 0.117 OD | 0.606 OD | 2.831 | 3.418 | 2.753 | 1.661 | 2.505 | 1.241 | 2.746 | 0.612 | 2.606 | pos | pos
6 | Cys-Gln-Gly-NH2 (peptide) | – | – | – | 0.296 | 0.11 | – | – | – | – | – | – | – | – | – | – | – | – | – | –
7 | Gly-Ala-Thr (Gly-Ala-Thr-NH2) [GAT-NH2] | – | – | failed to prevent infection and syncytia formation | – | – | 1.565 | 0.116 OD | 0.776 OD | 2.800 | 3.461 | 2.835 | 1.707 | 2.565 | 0.892 | 2.343 | 0.572 | 2.776 | pos | pos
8 | Gly-His-Lys (Gly-His-Lys-NH2) [GHK-NH2] | – | – | failed to prevent infection and syncytia formation | – | – | 2.151 | 0.289 OD | 0.829 OD | 3.013 | 3.522 | 2.931 | 1.936 | 2.418 | 0.097 | 2.384 | 0.396 | 2.394 | pos | pos
9 | Gly-Pro-Gln (Gly-Pro-Gln-NH2) [GPQ-NH2] | – | – | did not prevent HIV infection | – | – | 1.965 | 0.204 OD | 0.884 OD | 2.848 | 3.692 | 2.734 | 1.511 | 2.382 | 1.542 | 2.176 | 0.574 | 2.319 | pos | pos
10 | His-Lys-Ala (His-Lys-Ala-NH2) [HKA-NH2] | – | – | did not prevent HIV infection | – | – | 2.546 | 0.312 OD | 1.081 OD | 2.794 | 3.408 | 2.669 | 1.678 | 2.560 | 0.416 | 2.520 | 0.455 | 2.623 | pos | pos
11 | Iso-Leu-Lys (Ile-Leu-Lys-NH2) [ILK-NH2] | – | – | – | – | – | 2.033 | 0.365 OD | 0.581 OD | 2.950 | 3.467 | 2.791 | 1.692 | 2.557 | 3.180 | 2.255 | 0.515 | 2.632 | pos | pos
12 | Leu-Lys-Ala (Leu-Lys-Ala-NH2) [LKA-NH2] | – | – | did not prevent HIV infection | – | – | 2.429 | 0.568* OD | 0.894* OD | 2.989 | 3.649 | 2.769 | 1.689 | 2.637 | 3.577 | 2.452 | 0.724 | 2.797 | pos | pos
13 | Lys-Ala-Arg (Lys-Ala-Arg-NH2) [KAR-NH2] | – | – | – | – | – | 2.779 | 0.380 OD | 0.753 OD | 2.928 | 3.419 | 2.640 | 1.904 | 2.742 | 0.266 | 1.722 | 1.034 | 2.672 | pos | pos
14 | Lys-Ala-Leu (Lys-Ala-Leu-NH2) [KAL-NH2] | – | – | failed to prevent infection | – | – | 1.995 | 0.246 OD | 0.999 OD | 2.791 | 3.372 | 2.749 | 1.757 | 2.383 | 1.091 | 2.524 | 0.511 | 2.663 | pos | pos
15 | cystyl-glutaminyl-glycine amide [CQG-NH2] | inhibit or prevent HIV-2 and SIV infection | inhibit or prevent HIV-2 and SIV infection | inhibited and/or prevented HIV-1 infection | – | – | – | – | – | – | – | – | – | – | – | – | – | – | – | –
